We go through two molecules from article PMC9496321, “6-Furopyridine Hexamethylene Amiloride Is a Non-Selective P2X7 Receptor Antagonist” (Biomolecules, 2022).

The target in experiment [1] is T1, hP2X7 (Homo sapiens, UniProt Q99572).
T1 construct: expressed in transfected cells; host or cells: HEK293 cells, stably transfected (HEK-hP2X7)
T1 sequence (Q99572 1-595): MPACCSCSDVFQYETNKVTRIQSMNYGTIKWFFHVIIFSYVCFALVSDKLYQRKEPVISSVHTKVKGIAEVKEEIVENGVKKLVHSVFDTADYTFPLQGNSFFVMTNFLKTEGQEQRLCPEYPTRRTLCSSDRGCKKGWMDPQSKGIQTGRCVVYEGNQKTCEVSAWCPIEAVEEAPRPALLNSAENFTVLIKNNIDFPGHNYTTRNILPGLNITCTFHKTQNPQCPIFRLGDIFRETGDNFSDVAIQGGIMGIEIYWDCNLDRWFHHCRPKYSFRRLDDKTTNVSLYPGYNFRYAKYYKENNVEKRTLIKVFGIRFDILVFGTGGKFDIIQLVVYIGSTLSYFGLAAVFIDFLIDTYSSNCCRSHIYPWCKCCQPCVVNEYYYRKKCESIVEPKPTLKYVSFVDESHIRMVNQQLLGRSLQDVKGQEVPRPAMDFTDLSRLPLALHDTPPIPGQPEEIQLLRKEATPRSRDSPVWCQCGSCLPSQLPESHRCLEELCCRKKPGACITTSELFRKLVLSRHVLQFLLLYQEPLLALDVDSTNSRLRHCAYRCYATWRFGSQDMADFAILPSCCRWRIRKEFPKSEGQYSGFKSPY
In words: ATP-induced ethidium+ uptake in stably transfected HEK-hP2X7 cells (flow cytometry). The experiment is classed as cell-based. To be noted: for maximum ATP response, ethidium+ uptake: increasing ATP; for EC50: EC50 of ATP.

For experiment [2], the system named is NHE1. On the set-up: method as in PMID 33804289. As to conditions: cited from earlier work.
Experiment [3] addresses T1, hP2X7. In words: Fura-2AM Ca2+ response assay in HEK-hP2X7 cells. The class given is cell-based. As to conditions: for maximum ATP response, Ca2+: increasing ATP; for EC50: EC50 of ATP.
The target of experiment [4] is T2, endogenous hP2X7 (Homo sapiens, UniProt Q99572).
T2 construct: endogenous in cells; host or cells: RPMI8226 cells
T2 sequence (Q99572 1-595): T1 sequence (Q99572 1-595)
In words: ATP-induced ethidium+ uptake in RPMI8226 multiple myeloma cells (flow cytometry). The experiment is classed as cell-based.

Experiment [5] deals with hP2X7-mediated IL-1β release. Put plainly: Whole blood IL-1β release assay. The experiment is classed as cell-based. To be noted: 30 μM compound, 6 mM ATP, LPS-primed human whole blood. How it is done: Whole blood IL-1β release assays were conducted as described. Briefly, whole human blood was mixed with an equal volume of serum-free RPMI-1640 medium containing LPS (200 ng/mL), added to a flat-bottom 96-well plate and incubated (37 °C, 95% air/5% CO2, 105 min). Compounds (30 μM) or vehicle (DMSO) were added to respective wells and incubated (37 °C, 95% air/5% CO2, 15 min). […] Plates were centrifuged (700× g, 10 min) with the resulting supernatants collected and stored at −80 °C. hIL-1β concentrations were determined using a Human IL-1β ELISA (Thermo Fisher Scientific) according to the manufacturer’s instructions. Samples above the detection limit (7500 pg/mL) were set at 7500 pg/mL for statistical analysis.

Experiment [6] deals with endogenous hP2Y receptors, including hP2Y1, hP2Y2 and hP2Y4. Put plainly: Fura-2AM Ca2+ response assay in non-transfected HEK293 cells. The class given is cell-based, human. The method, then:
Ca^2+ response assays were conducted as described. Briefly, HEK293, HEK-hP2X7 or HEK-hP2X4 cells were harvested and plated in black, clear-bottom 96-well plates at 5 × 10^4 cells/well overnight (37 °C, 95% air/5% CO2). Cells were washed with extracellular Ca^2+ solution (ECS) (145 mM NaCl, 2 mM CaCl2, 5 mM KCl, 13 mM glucose and 10 mM HEPES, pH 7.4) and incubated with Fura-2AM loading buffer (2.5 μM Fura-2AM and 0.2% pluronic acid in ECS) (37 °C, 95% air/5% CO2, 30 min, dark). Loading buffer was removed; cells were washed once with ECS and incubated in ECS (37 °C, 95% air/5% CO2, 20 min, dark) to allow Fura-2AM de-esterification. Where indicated, cells were pre-incubated with compound or vehicle (DMSO) (37 °C, 30 min, dark). Fura-2 fluorescence at 510 nm was measured every 5 s using a FlexStation 3 (Molecular Devices, San Jose, CA, USA). […] Data was acquired using SoftMax Pro version 7.0 (Molecular Devices). Relative changes in intracellular Ca^2+ were calculated using the ratio of Fura-2AM fluorescence at 510 nm following excitation at 340 nm and 380 nm (F340nm/380nm). […] Ca^2+ responses over time were plotted in Prism software v8.4.2 (GraphPad Software, La Jolla, CA, USA). To determine relative P2X-mediated Ca^2+ responses, the area under the curve from 100 to 180 s was calculated with GraphPad Prism. To determine P2Y-mediated Ca^2+ responses the area under the curve from 30 to 100 s was calculated. In both cases, ATP-induced responses were calculated by subtracting the corresponding basal response. These responses were normalised to the maximal ATP-induced response within their respective experiment.

For experiment [7], the target named is T3, P2X7 (Homo sapiens, UniProt Q99572).
T3 sequence (Q99572 1-595): T1 sequence (Q99572 1-595)
In words: Plate-based flow cytometric YO-PRO-1 dye uptake compound screen in RPMI8226 cells. The experiment is classed as cell-based. As to conditions: RPMI8226 cells, plate-based screen. On the set-up: endogenous in cells; host or cells: RPMI8226 cells. The method, then:
RPMI8226 cells were washed thrice with low-divalent medium (LDM) (145 mM NaCl, 2 mM KCl, 0.2 mM CaCl2, 13 mM D-glucose and 10 mM HEPES, pH 7.5) and 1 × 10^5 cells were added to each well of a 96-well flat-bottomed plate. Amiloride derivatives, at 10 μM (final concentration 5 μM) or vehicle (DMSO) were added, and plates pre-incubated (37 °C, 15 min). […] Wells were washed twice with LDM (300× g, 5 min) and cells were resuspended in LDM. Data was acquired with an Attune NxT Flow Cytometer an Autosampler (Thermo Fisher Scientific). Mean fluorescent intensity (MFI) of YO-PRO-1^+ uptake was determined using FlowJo.

Setting [8] is: read-out: IC50, hP2X7-mediated dye uptake.

Regarding `N=C(N)NC(=O)c1nc(-c2cc3cnccc3o2)c(N2CCCCCC2)nc1N` [6-FPHMA, 6-furopyridine-substituted 5-(N,N-hexamethylene) amiloride], the “maximum ATP response, ethidium+ uptake” value amounted to 90 ± 4% in experiment [1] (0.3 μM 6-FPHMA), 52 ± 3% in experiment [1] (3 μM 6-FPHMA) and 13 ± 1% in experiment [1] (30 μM 6-FPHMA). For the same molecule, the “blockade of hP2X7-mediated dye uptake” value in experiment [1] (100 μM compound, 450 μM ATP, HEK-hP2X7 cells) is reported as 95%; in experiment [4] (30 μM compound, 300 μM ATP, RPMI8226 cells) it was 100%. Besides, the mode of inhibition result in experiment [1] (ethidium+ uptake, HEK-hP2X7 cells) is “non-competitive”; in experiment [3] (Ca2+ response, HEK-hP2X7 cells) it was “non-competitive”. Moreover, the IC50 in experiment [1] (setting [8]) amounted to 1.63 ± 0.42 µM; in experiment [3] (read-out: IC50, hP2X7-mediated Ca2+ responses), 0.46 ± 0.14 µM; in experiment [4] (setting [8]) it was 0.58 ± 0.05 µM; in experiment [6] (2.5 μM ATP, AUC 30-100 s, read-out: IC50, endogenous hP2Y-mediated Ca2+ responses) it was 0.33 ± 0.13 µM. In addition, the “inhibition of NHE1” value in experiment [2] was “inhibit”. Moreover, the figures for the “maximum ATP response, Ca2+” value in experiment [3] (0.3 μM 6-FPHMA), in experiment [3] (3 μM 6-FPHMA) and in experiment [3] (30 μM 6-FPHMA) were 54 ± 7%, 43 ± 6% and 5 ± 1%, respectively. In addition, in experiment [3] (30 μM compound, 720 μM ATP), the “blockade of hP2X7-mediated Ca2+ responses” value was 100%. In addition, the “reduction of ATP-induced IL-1β compared to vehicle control” value in experiment [5] is given as 56 ± 15%. The “inhibition of hP2Y-mediated Ca2+ responses” value in experiment [6] (30 μM compound, 2.5 μM ATP) worked out at 97%.
Regarding `Nc1ncnc2c1ncn2[C@@H]1O[C@H](COP(=O)(O)OP(=O)(O)OP(=O)(O)O)[C@@H](O)[C@H]1O` [ATP, adenosine 5′-triphosphate], the EC50 turned out to be 466 ± 17 µM in experiment [1] (ethidium+ uptake, HEK-hP2X7 cells, no antagonist (Figure 2C)); 464 ± 52 µM in experiment [1] (ethidium+ uptake, in presence of 0.3 μM 6-FPHMA); 517 ± 49 µM in experiment [1] (ethidium+ uptake, in presence of 3 μM 6-FPHMA); 557 ± 47 µM in experiment [1] (ethidium+ uptake, in presence of 30 μM 6-FPHMA); 419 ± 24 µM in experiment [1] (ethidium+ uptake, pre-incubated with DMSO vehicle (Figure 2E)); 722 ± 76 µM in experiment [3] (Ca2+ response, HEK-hP2X7 cells, no antagonist (Figure 2F), AUC 100-180 s). Further, the EC50 in experiment [3] (Ca2+ response, in presence of 0.3 μM 6-FPHMA) was 526 ± 131 µM; in experiment [3] (Ca2+ response, in presence of 3 μM 6-FPHMA), 857 ± 317 µM; in experiment [3] (Ca2+ response, in presence of 30 μM 6-FPHMA) it was 691 ± 151 µM; in experiment [3] (Ca2+ response, pre-incubated with DMSO vehicle (Figure 2H)) it was 526 ± 127 µM; in experiment [4] (RPMI8226 cells, no antagonist), 311 ± 21 µM; in experiment [7], approximately 250 µM. Also, in experiment [6] (read-out: EC50 of ATP, Ca2+ response, HEK293 cells, AUC 30-100 s), the EC50 came to 2.5 ± 1.01 µM. Further, the “ATP concentration giving maximum Ca2+ response” value in experiment [6] (HEK293 cells) was found to be 300 µM.
